# Assay results from patent US20240335427A1, “SMALL MOLECULE INHIBITION OF DEUBIQUITINATING ENZYME JOSEPHIN DOMAIN CONTAINING 1 (JOSD1) AS A TARGETED THERAPY FOR LEUKEMIAS WITH MUTANT JANUS KINASE 2 (JAK2)” (DANA-FARBER CANCER INSTITUTE, INC., priority 2021, published 2024).
# Experiments:
# [1] = target: T1, JOSD1 (Homo sapiens (Human), UniProt Q15040); assay: In vitro JOSD1 activity assay (biochemical IC50, purified enzyme)
# Procedure: (§3) In vitro JOSD1 activity assay & Ubiquitin-7-amido-4-methylcoumarin (AMC) assay. In vitro JOSD1 activity assay was carried out with Ubiquitin-AMC assay. […] Recombinant JOSD1 was tested for activity in a Ubiquitin-AMC assay in the presence or absence of inhibitors. […] The reaction was incubated for 6 hours at room temperature prior to the addition of 2 μM Ubiquitin-AMC (Boston Biochem) substrate. The initial rate of the reaction was measured by collecting fluorescence data at one-minute intervals over a 30-minute period using a Clariostar® fluorescence plate reader at excitation and emission wavelengths of 345 and 445 nm, respectively. The calculated initial rate values were plotted against inhibitor concentrations to determine IC50 values.
# (§4) In vitro JOSD1 activity assay. Recombinant full-length JOSD1 was tested for activity in a Ubiquitin-AMC assay in the presence or absence or inhibitors. For this assay, 10 nM JOSD1 was pre-incubated with different concentrations of inhibitors or DMSO as a control in 50 mM Tris 8.0, 0.5 mM EDTA, 10 mM ovalbumin, 5 mM DTT. The reaction was incubated for 6 h at room temperature prior to the addition of 2 mM Ubiquitin-AMC (Boston Biochem) substrate. The initial rate of the reaction was measured by collecting fluorescence data at one-minute intervals over a 30-minute period using a CLARIOstar® fluorescence plate reader at excitation and emission wavelengths of 345 and 445 nm, respectively. The calculated initial rate values were plotted against inhibitor concentrations to determine IC50 values.
# (§5) JOSD1 biochemical inhibition was investigated for the analogs shown using the fluorescent substrate ubiquitin-rhodamine against purified enzyme in a continuous kinetic assay.
# [2] = target: wt JAK2 (Mus musculus (Mouse), UniProt Q62120); assay: JAK2 protein level by western blotting in Ba/F3-EPOR-JAK2 wt cells; format: cell-based
# Procedure: (§1) Immunoblotting and Immunoprecipitation. Protein lysate preparation, immunoblotting, and immunoprecipitation were carried out as previously described (Lamberto, et al., 2017 Cell Chem Biol., 224(12):1490-500 e11). Briefly, 0.7×10^6 cells were treated with compounds 1 and 2 at 0, 5, 10, and 20 μM for 16 or 24 hours, cells were collected, and lysate was prepared in radioimmunoprecipitation assay (RIPA) buffer, JAK family and downstream signaling protein levels were detected by western blotting with the indicated antibodies. For immunoprecipitation, 1 mg protein for each sample was prepared and 1 μg antibody was used, immunoglobulin G (IgG) was added in same amount as nontargeting control.
# [3] = tested on: normal bone marrow cells; assay: Normal bone marrow colony assay; format: cell-based, human
# Procedure: Normal human bone marrow was also analyzed in a colony assay: 24-well plates seeded with 200 cells/well in MethoCult™ H4434 Classic (methylcellulose-based medium with recombinant cytokines for human cells) ([…] Technologies™ INC., Vancouver, British Columbia, Canada). The plates contained targeted JOSD1 inhibitors at the indicated concentrations. Plates were incubated at 37° C. in 5% CO2 for >1 week, and then myeloid and erythroid colonies (early progenitors with erythroid and myeloid components: colony-forming unit for granulocytes and macrophages (CFU-GM), CFU-erythroid (E), BFU-E, and CFU-granulocyte, erythroid, macrophage, megakaryocyte (GEMM) were counted on an inverted microscope.
# [4] = tested on: Ba/F3-EPOR-JAK2-V617F-expressing cells; assay: Ba/F3 cell proliferation (CellTiter Glo); format: cell-based, murine
# Procedure: Proliferation and Drug Combination Studies. Proliferation and drug combination studies were carried out as previously described (Yang, et al., 2020, British Journal of Cancer, 122:1175-84).
# As toxicities can result from small molecule targeting of both oncogenic mutated JAK2 as well as its non-mutated counterpart, a chemical genetics screen was designed and performed of a DUB-focused small molecule inhibitor library with the goal of leveraging crosstalk between phosphorylation and ubiquitination to identify DUB inhibitors able to selectively degrade mutant JAK2 while sparing wt JAK2. Of relevance, activated FLT3 can be selectively degraded over the wt enzyme by inhibition of the DUB, USP10, (Wernig, et al., 2008, Blood, 111(7):3751-9) and similar to FLT3, JAK2 is ubiquitinated in an activation-dependent manner. In brief, the library of known and novel DUB inhibitors was evaluated for ability to suppress growth of Ba/F3-EPOR-JAK2-V617F-expressing cells selectively over Ba/F3-EPOR cells growing in the presence of interleukin-3.
# (§2) A broader range of compounds 1 and 2, including concentrations lower than 1 μM, were also tested on growth of EPOR-JAK2-V617F-expressing Ba/F3 cells and parental Ba/F3 EpoR+ cells (24 hours treatment on 4000 cells per well) (FIG. 18-FIG. 18B). Cell growth inhibition (FIG. 17A-FIG. 17B, FIG. 18A-FIG. 18B) was tested on Ba/F3-EPOR-JAK2-V617F (-IL-3/WEHI) and parental Ba/F3-EPOR cells (+IL-3/WEHI) plated at 2000 cells per well, at 1, 3 and 10 μM for 24 hours using the Promega CellTiter Glo® assay.
# [5] = tested on: JAK2-V617F; assay: JAK2 protein level by western blotting in Ba/F3-EPOR-JAK2-V617F cells; format: cell-based
# Procedure: as §1, with “[…],” for “and 20 μM for 16 or 24 hours,”
# as §2
# [6] = target: USP30 (Homo sapiens (Human), UniProt Q70CQ3); assay: USP30 biochemical IC50
# [7] = tested on: HEL cells; assay: HEL cell growth inhibition by fresh or aged drug stocks (stability); format: cell-based, human; conditions: stocks stored two to three years at −20° Celsius; 2.5, 5, 10, 20 μM, 24 hours
# Procedure: Fresh or aged stocks of compounds 1 and 2 were tested for the ability to inhibit HEL cell growth at 2.5, 5, 10, and 20 μM of each drug after 24 hours (FIG. 19A-FIG. 19B).
# The CellTiter Glo® assay was performed using HEL cells seeded at 1000 cells/well of a 96-well plate. The “fresh” drug stocks were obtained frozen (stored at −20° Celsius) within days of executing the proliferation experiment for which results are shown. The “aged” drug stocks were obtained from freeze-thawed stocks serially diluted and stored at −20° Celsius in the laboratory. The “aged” stocks were stored between at least two years to three years at −20° Celsius with little to no freeze-thaw cycles prior to execution of the proliferation experiment for which results are shown. “Aged” stocks may be stored for several years (e.g., at least one year, at least two years, at least three years, at least four years or more) at −20° Celsius prior to use.
# [8] = target: JAK2-V617F (Homo sapiens (Human), UniProt O60674, V617F); assay: JAK2-V617F protein loss in human AML cell lines by western blotting; format: cell-based; conditions: HEL cells, co-treatment with cycloheximide
# Procedure: as §1
# [9] = target: UCHL1 (Homo sapiens (Human), UniProt P09936); assay: UCHL1 biochemical inhibition (ubiquitin hydrolase activity, purified enzyme)
# [10] = tested on: native DUBs (UCHL1, USP30 and JOSD1); assay: Competitive activity-based protein profiling with quantitative mass spectrometry in HEK-293T lysates; format: binding; conditions: block of labeling by DUB activity-based probes
# Procedure: Activity Based Protein Profiling (ABPP) assay. DUB targets were investigated using competitive ABPP with quantitative mass spectrometry. The ability to block labeling of 50 DUBs by ubiquitin-based DUB activity-based probes was quantitatively measured in HEK-293T lysates.
# DUB ABPP of Compound Targets. Activity-based probes biotin-Ub-PA (UbiQ-076) and biotin-Ub-VME (UbiQ-054) were obtained from UbiQ Bio. DUB Activity based protein profiling was performed using conditions modified from those in Schauer, et al., 2020, Scientific Reports, 10:1-15, based on work by Lawson, et al., 2017 Oncotarget, 8:51296-316. HEK 293T cells were lysed (50 mM Tris pH 8.0, 150 mM NaCl, 5 mM MgC2, 0.5 mM EDTA, 0.5% NP-40, 10% glycerol, 1 mM tris(2-carboxyethyl)phosphine (TCEP), protease and phosphatase inhibitors) and the lysate was clarified by centrifugation, then diluted to 10 mg/mL. 200 μL aliquots were incubated at the indicated compound concentrations or DMSO for 5 hours at room temperature, final DMSO concentration 0.5%. Afterwards, the treated lysates were incubated with 1 μM each of Biotin-Ub-PA and Biotin-Ub-VME for 90 minutes at room temperature. […]
# Specifically, quantitative mass spectrometry was utilized to measure the ability of compounds 1 and 2 to block labeling of […] native DUBs by ubiquitin-based DUB activity-based probes in HEK-293T lysates. […]
# [11] = target: T1, JOSD1; assay: biochemical
# Procedure: as §3, §4, §5
# Chain of UCHL1 (P09936 whole entry, species assumed): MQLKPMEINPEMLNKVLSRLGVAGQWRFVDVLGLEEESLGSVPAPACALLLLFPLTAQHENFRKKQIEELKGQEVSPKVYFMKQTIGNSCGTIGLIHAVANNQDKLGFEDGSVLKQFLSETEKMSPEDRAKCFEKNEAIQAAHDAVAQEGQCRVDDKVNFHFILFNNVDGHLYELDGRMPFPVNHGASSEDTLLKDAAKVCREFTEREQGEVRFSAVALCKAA
# Chain of USP30 (Q70CQ3 whole entry, species assumed): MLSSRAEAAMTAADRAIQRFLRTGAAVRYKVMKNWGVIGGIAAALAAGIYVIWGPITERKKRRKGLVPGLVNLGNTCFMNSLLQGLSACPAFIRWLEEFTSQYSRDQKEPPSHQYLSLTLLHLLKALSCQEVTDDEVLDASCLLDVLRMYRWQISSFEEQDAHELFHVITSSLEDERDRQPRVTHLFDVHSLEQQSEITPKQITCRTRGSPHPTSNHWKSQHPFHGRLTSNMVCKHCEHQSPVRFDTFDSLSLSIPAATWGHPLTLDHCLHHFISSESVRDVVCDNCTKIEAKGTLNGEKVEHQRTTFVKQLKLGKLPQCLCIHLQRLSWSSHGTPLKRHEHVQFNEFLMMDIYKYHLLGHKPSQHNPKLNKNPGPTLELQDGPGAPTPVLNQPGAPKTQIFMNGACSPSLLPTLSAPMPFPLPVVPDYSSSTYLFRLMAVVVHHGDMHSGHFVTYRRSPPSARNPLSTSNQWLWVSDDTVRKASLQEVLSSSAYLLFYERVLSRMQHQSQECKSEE
structure (smiles),measurement,setting,value
"Cc1noc(C)c1-c1ccc2nc(NC(=O)[C@H]3CCN(C#N)C3)sc2c1 [Compound 1, (S)-1-cyano-N-(6-(3,5-dimethylisoxazol-4-yl)benzo[d]thiazol-2-yl)pyrrolidine-3-carboxamide]",JOSD1 IC50 (range in words),[1],several hundred
same,JAK2 levels in wt cells,[2],little to no impact on JAK2 levels
same,normal bone marrow colony formation,[3]; 5 μM or higher,significantly impaired
same,normal bone marrow colony formation,[3]; concentrations up to 2.5 μM,colonies were able to form
same,killing of Ba/F3-EPOR-JAK2-V617F cells compared to wt JAK2-expressing parental Ba/F3 cells,[4],selective killing
same,sensitivity compared to Ba/F3 cells overexpressing other oncogenes,[4],among the highest sensitivity
same,cell growth inhibition,"[4]; 1, 3 and 10 μM, 24 hours, independent experiments",inhibit growth
same,"JAK2 degradation, independent western blotting","[5]; 18 hours, 10 μM compound 1 or 5 μM compound 2",degradation of JAK2
same,JAK2-V617F protein level,[5]; Ba/F3-EPOR-JAK2-V617F-expressing cells,decreases in JAK2-V617F protein
same,USP30 biochemical IC50 (range in words),[6],several hundred
same,stability: growth inhibition by aged stocks versus fresh stocks,[7],comparable cell growth inhibition
same,JAK2-V617F protein half-life,[8],shorten JAK2-V617F protein half-life
same,UCHL1 biochemical IC50 (range in words),[9],several hundred
same,"target engagement of UCHL1, USP30 and JOSD1",[10],dose-dependent target engagement
CCS(=O)(=O)N1CCN(c2nc3cccc(-c4c(C)noc4C)c3s2)C(=O)C1 [Compound 66],IC50,[11],> 100 nM
